# Source: patent publication US20140315234A1, “METHOD TO GENERATE DOPAMINERGIC NEURONS FROM MOUSE AND HUMAN CELLS” (priority 2010, published 2014)
# Like-named read-outs stand apart in the source and are kept apart here.
# Assays:
# [1] = tested on: K+ channel; format: cell-based, mouse
# [2] = tested on: K+ currents; test: Pharmacological suppression of K+ currents in human iDAN cells; format: cell-based
# Procedure: (§1) Recordings were performed on reprogrammed mouse and human fibroblasts and primary mesencephalic DA neurons. […] Only cells without signs of detachment from the substrate were used for recordings. Cells were perfused continuously with HEPES-buffered saline (HBS) of the following composition (in mM): 140 NaCl, 5 KCl, 2 CaCl2, 2 MgCl2, 15 HEPES, and 25 glucose, pH 7.4. The patch pipette solution contained (in mM): 130 K-gluconate, 10 KCl, 0.5 CaCl2, 15 HEPES, 5 EGTA, 8 NaCl, 2 MgATP, 0.3 Na2GTP, and 10 glucose, pH adjusted to 7.2 with KOH. Action potentials were recorded in the on-cell and the current-clamp whole-cell configuration. A current was injected to have membrane potentials around −60 mV, and step currents from −50 pA to 40 pA were injected to elicit action potentials. Na^+ currents and composite K^+ currents were recorded in the voltage-clamp configuration by delivering voltage steps ranging from −100 mV to +20 mV in cells held at −60 mV. Delayed rectifier K+ currents were activated by 0.5 s voltage steps from −40 mV to +20 mV after a 0.5 s-long step to −40 mV.
# [3] = tested on: Na+ currents; format: cell-based, human
# [4] = tested on: Na+ voltage-gated channels; format: cell-based, mouse
# [5] = tested on: D2/D3 receptor; format: cell-based, mouse
# Procedure: as §1
smiles,measurement,setting,value
"Nc1ccncc1 [4-AP, 4-aminopyridine]",effect on outward K+ currents,"[1]; 4-AP 3 mM, TEA 10 mM, in the presence of TTX, n=4",inhibition of outward currents
same,effect on K+ currents and action potentials,[2],Suppression
"CC[N+](CC)(CC)CC [TEA, tetraethylammonium]",effect on outward K+ currents,[1],inhibition of outward currents
"NC1=N[C@H](O)[C@H]2[C@H]3O[C@]4(O)O[C@@H]([C@@H](O)[C@@]2(N1)[C@@H]4O)[C@]3(O)CO [TTX, tetrodotoxin]",effect on Na+ currents and action potentials,[3],Suppression
same,block of the fast inward current,[4],complete block
CCCN1CCC[C@@H]2Cc3n[nH]cc3C[C@H]21 [quinpirole],effect on neuronal firing,[5],drastically suppressed neuronal firing in 6 of 10 recorded cells
